# Results as given in US8546421B1, “Oncogenic-RAS-signal dependent lethal compounds” (The Trustees of Columbia University in the City of New York, priority 2007, dated 2013).
# Assays:
# VDAC3 in HT1080 cells = experiment: Drug sensitivity after shRNA knockdown of VDAC3; assay type: cell-based, human; conditions: shRNAs targeting VDAC3, alamar blue
# Description: (§1) On day one, 3×10^5 Calu-1 cells or 2×10^5 HT1080 cells were seeded in 10-cm dishes; on day 2, frozen virus stock was thawed at 37° C., hexadimethrine bromide (polybrene) (Sigma, cat.#H9268) was added to the virus solution at a final concentration of 8 μg/mL and growth media from cell culture was replaced with the virus/polybrene mixture. The culture was returned to the tissue culture incubator for 2 hours, with rocking of the dishes every 30 min in order to prevent drying. After 2 h, 10 mL growth medium was added, the culture was incubated for 2 days, and cells stably expressing shRNA were selected by adding puromycin (Sigma, cat.#P9620) at a final concentration of 1.5 μg/mL.
# (§2) On the day of experiment, assay plates were prepared by seeding 3,000 HT1080, HT1080-pLKO, HT1080-TfR1 KD, Calu-1, Calu-1-pLKO, or Calu-1-509 cells per well in 36 μL of growth media to black, clear bottom 384-well plates. Also, assay plates were prepared by seeding 1,500 shRNA infected HT1080 or Calu-1 cells per well. Cells in assay plates were treated with each lethal compound in a 2-fold dilution series by transferring 4 μL solution from a 10× lethal plate of Erastin, Compound 3, Compound 27, or Compound 36. […] Percent growth inhibition (% GI) was calculated using fluorescence intensity values.
# HT1080-TfR1KD cells = experiment: Drug sensitivity after shRNA knockdown of TfR1; assay type: cell-based, human; conditions: alamar blue
# Description: as §1, §2
# [1] = system: BJ cell system (BJ-TERT, BJ-TERT/LT/ST, BJ-TERT/LT/ST/RAS^V12, DRD cells); experiment: Alamar blue potency and selectivity in the engineered BJ cell system; conditions: alamar blue; for degree of selectivity against HRAS^G12V: oncogenic-RAS-expressing vs non-oncogenic-RAS-expressing BJ cells
# Description: Empty “step-daughter plates” were filled with 50 μL DMEM, except for columns 3 and 13, where 100 μL of hit compound solution were cherry-picked from daughter plates. After compound transfer, 2-fold dilution series across columns 3 through 12 and columns 13 through 22 was made by transferring 50 μL of compound solution to the next column successively (10-point dilution series), with extensive mixing. Hit-picking and 2-fold dilution series were carried out using Biomek FX Span-8 module (Beckman Coulter). Assay plates were prepared by seeding 1,000 BJ-TERT, BJ-TERT/LT/ST, and BJ-TERT/LT/ST/RAS^V12 cells per well in 36 μL growth medium. Cells in assay plates were treated with compounds from step-daughter plates by transferring 4 μL. The final concentration of the compound was 5.33 μg/mL to 0.01 μg/mL in this 10-point, 2-fold dilution series. Assay plates were returned to the culture incubator and maintained for 48 hours before adding alamar blue.
# Fresh daughter plates were made from the mother plate and cherry-picked hits from the first round, 2-fold dilution series experiment as described above. Assay plates were prepared by seeding 1,000 BJ-TERT, BJ-TERT/LT/ST, BJ-TERT/LT/ST/RAS^V12 or BJ-TERT/p53DD/CDK4/cyclinD1/ST/RAS^V12 (DRD) cells per well in 32 μL growth media. Cells in the assay plates were treated with compounds from the step-daughter plate by transferring 8 μL solution. The final concentration of the compound was 10.66 μg/mL to 0.02 μg/mL in a 10-point, 2-fold dilution series manner. Assay plates were returned to the culture incubator and maintained for 48 hours before adding alamar blue.
# Cells were seeded in 384-well assay plates, treated with candidate compounds, and incubated in the culture incubator in 40 μL culture volume per well. […] Plates were incubated further for 16 hours to allow reduction of alamar blue, which results in the generation of red fluorescence. The fluorescence intensity was determined using a Victor 3 plate reader (Perkin Elmer) with a 535 nm excitation filter and a 590 nm emission filter.
# In the subsequent two-fold dilution series testing, selectivity was calculated as the ratio of GI50 values in BJ-TERT/LT/ST and BJ-TERT/LT/ST/RAS^V12 cells. […] DRD cells are also derived from BJ primary cells and the effects of mutations in both lines should be similar.
# [2] = system: PARP-1 cleavage in BJ-TERT/LT/ST/RAS^V12 cells; experiment: Western blot of PARP-1 cleavage upon compound treatment; assay type: cell-based, human; conditions: Western blot with anti-PARP-1 antibody
# Description: 2×10^6 BJ-TERT/LT/ST/RAS^V12 cells were seeded in 10 cm dishes and treated with 1 μM staurosporine, 10 μg/mL erastin, 20 μg/mL Compound 3, and 1 μg/mL Compound 27 for 16 h. Both dying cells and live cells in each 10 cm dish were harvested and collected in the same 15 mL tubes by centrifuging cell suspension at 1,000 rpm for 5 min. Cell pellets were washed three times with PBS and cells were lysed in 200 μL of denaturing lysis buffer (50 mM HEPES KOH [pH 7.4], 40 mM NaCl, 2 mM EDTA, 1.5 mM Na3VO4, 50 mM NaF, 10 mM sodium pyrophosphate, 10 mM sodium β-glycerophosphate, 0.5% Triton X-100, and protease inhibitor tablet [Roche, cat.#11836170001]). Protein content was quantified using a Bio-Rad protein assay reagent (Bio-Rad, cat.#500-00006). Equal amounts of protein were resolved on SDS-polyacrylamide gels. The electrophoresed proteins were transblotted onto a PVDF membrane, blocked with 5% milk, and incubated with rabbit primary antibodies specific to: PARP (Santa Cruz, cat.#sc-7150), cleaved caspase-3 (Cell Signaling Technology, cat.#9661) overnight at 4° C. The membrane was then incubated in IRDye 800 goat anti-rabbit antibody (Li-cor Bioscience cat.#926-32211) at 1:3,000 dilutions for 45 min at room temperature. After washing off the unbound antibodies, membranes were scanned using the Odyssey™ Imaging System (Li-cor Bioscience).
# HS 578T = experiment: NCI60 anti-cancer screening; conditions: for GI 100%: HS 578T, Breast Cancer; for GI50 / CC50: Homo sapiens, Hs-578T; for CC50: read-out: LC 50%
# HCT-116 = experiment: NCI60 anti-cancer screening; conditions: for GI 100% / GI50: HCT-116; for GI 100%: Colon Cancer; for GI50 / CC50: Homo sapiens; for CC50: HCT-116, read-out: LC 50%
# SN12C = experiment: NCI60 anti-cancer screening; conditions: for GI50 / CC50: Homo sapiens; for CC50: read-out: LC 50%; for GI 100%: Renal Cancer
# OVCAR-8 = experiment: NCI60 anti-cancer screening; conditions: for GI50 / CC50: Homo sapiens; for GI50 / GI 100%: OVCAR-8; for CC50: OVCAR-8, read-out: LC 50%; for GI 100%: Ovarian Cancer
# SK-MEL-28 = experiment: NCI60 anti-cancer screening; conditions: for GI50 / CC50: Homo sapiens; for GI50 / GI 100%: SK-MEL-28; for CC50: SK-MEL-28, read-out: LC 50%; for GI 100%: Melanoma
# SK-MEL-2 = experiment: NCI60 anti-cancer screening; conditions: for GI50 / CC50: Homo sapiens; for GI50 / GI 100%: SK-MEL-2; for CC50: SK-MEL-2, read-out: LC 50%; for GI 100%: Melanoma
# EKVX = experiment: NCI60 anti-cancer screening; conditions: for GI50 / CC50: Homo sapiens; for CC50: read-out: LC 50%; for GI 100%: Non-small cell lung carcinoma
# HCC-2998 = experiment: NCI60 anti-cancer screening; conditions: for GI 100%: HCC-2998, Colon Cancer; for GI50 / CC50: Homo sapiens; for GI50: HCC 2998; for CC50: HCC 2998, read-out: LC 50%
# SNB-19 = experiment: NCI60 anti-cancer screening; conditions: for GI50 / CC50: Homo sapiens; for GI50 / GI 100%: SNB-19; for CC50: SNB-19, read-out: LC 50%; for GI 100%: CNS Cancer
# SK-OV-3 = experiment: NCI60 anti-cancer screening; conditions: for GI50 / CC50: Homo sapiens; for GI50 / GI 100%: SK-OV-3; for CC50: SK-OV-3, read-out: LC 50%; for GI 100%: Ovarian Cancer
# NCI-H460 = experiment: NCI60 anti-cancer screening; conditions: for GI50 / CC50: Homo sapiens; for GI50 / GI 100%: NCI-H460; for CC50: NCI-H460, read-out: LC 50%; for GI 100%: Non-small cell lung carcinoma
# NCI-H226 = experiment: NCI60 anti-cancer screening; conditions: for GI50 / CC50: Homo sapiens; for GI50 / GI 100%: NCI-H226; for CC50: NCI-H226, read-out: LC 50%; for GI 100%: Non-small cell lung carcinoma
# OVCAR-5 = experiment: NCI60 anti-cancer screening; conditions: for GI50 / CC50: Homo sapiens; for GI50 / GI 100%: OVCAR-5; for CC50: OVCAR-5, read-out: LC 50%; for GI 100%: Ovarian Cancer
# NCI-H322M = experiment: NCI60 anti-cancer screening; conditions: for GI50 / CC50: Homo sapiens; for CC50: read-out: LC 50%; for GI 100%: Non-small cell lung carcinoma
smiles,measurement,setting,value
COCCOC(=O)C1=C(C)NC2=C(C(=O)CC(c3ccc(Cl)cc3)C2)C1c1ccccc1F (centres unmarked) [Compound 3],effect of VDAC3 knockdown on compound-induced cell death,VDAC3 in HT1080 cells,suppressed
same,sensitivity of HT1080-TfR1KD cells compared with parental HT1080,HT1080-TfR1KD cells,decreased sensitivity
same,degree of selectivity against HRAS^G12V,[1],4-8 fold
same,PARP-1 cleavage / type of cell death,[2],activate a non-apoptotic pathway
same,GI 100%,HS 578T,>10 µM
same,GI50,HS 578T,9310 nM
same,CC50,HS 578T,> 10 µM
CCc1c(O)c2c(c(O)c1O[C@H]1O[C@@H](COC(C)=O)[C@H](OC(C)=O)[C@@H](CC(C)=O)[C@@H]1OC(C)=O)C(=O)C(O[C@@H]1O[C@H](COC(C)=O)[C@@H](OC(C)=O)[C@H](OC(C)=O)[C@H]1OC(C)=O)=C(O[C@@H]1O[C@H](COC(C)=O)[C@@H](OC(C)=O)[C@H](OC(C)=O)[C@H]1OC(C)=O)C2=O [Compound 6],GI 100%,HCT-116,1.32 µM
same,GI50,HCT-116,376 nM
same,CC50,HCT-116,3.64 µM
same,GI50,SN12C,8100 nM
same,CC50,SN12C,> 10 µM
same,GI 100%,SN12C,>10 µM
same,GI50,OVCAR-8,4220 nM
same,CC50,OVCAR-8,> 10 µM
same,GI 100%,OVCAR-8,>10 µM
same,GI50,SK-MEL-28,1460 nM
same,CC50,SK-MEL-28,6.63 µM
same,GI 100%,SK-MEL-28,3.11 µM
same,degree of selectivity against HRAS^G12V,[1],4-8 fold
same,GI50,SK-MEL-2,2320 nM
same,CC50,SK-MEL-2,> 10 µM
same,GI 100%,SK-MEL-2,6.87 µM
same,GI 100%,HS 578T,>10 µM
same,GI50,HS 578T,3310 nM
same,CC50,HS 578T,> 10 µM
COC(=O)c1ccc(C2c3[nH]c4ccccc4c3CC(C(=O)OC)N2C(=O)CCl)cc1 (centres unmarked) [Compound 27],effect of VDAC3 knockdown on compound-induced cell death,VDAC3 in HT1080 cells,not affected
same,GI50,EKVX,2310 nM
same,CC50,EKVX,> 10 µM
same,GI 100%,EKVX,5.63 µM
same,GI 100%,HCT-116,1.48 µM
same,GI50,HCT-116,364 nM
same,CC50,HCT-116,3.84 µM
same,GI 100%,HCC-2998,5.1 µM
same,GI50,HCC-2998,2010 nM
same,CC50,HCC-2998,> 10000 nM
same,GI50,SNB-19,2350 nM
same,CC50,SNB-19,> 10 µM
same,GI 100%,SNB-19,7.41 µM
same,GI50,SN12C,1250 nM
same,CC50,SN12C,6.12 µM
same,GI 100%,SN12C,2.77 µM
same,GI50,OVCAR-8,2320 nM
same,CC50,OVCAR-8,> 10 µM
same,GI 100%,OVCAR-8,>10 µM
same,GI50,SK-OV-3,1680 nM
same,CC50,SK-OV-3,6.67 µM
same,GI 100%,SK-OV-3,3.34 µM
same,GI50,SK-MEL-28,1620 nM
same,CC50,SK-MEL-28,6.76 µM
same,GI 100%,SK-MEL-28,3.31 µM
same,GI50,NCI-H460,1430 nM
same,CC50,NCI-H460,6.74 µM
same,GI 100%,NCI-H460,3.11 µM
same,degree of selectivity against HRAS^G12V,[1],four-fold
same,GI50,NCI-H226,688 nM
same,CC50,NCI-H226,> 10 µM
same,GI 100%,NCI-H226,2.79 µM
same,PARP-1 cleavage / type of cell death,[2],activate a non-apoptotic pathway
same,GI50,OVCAR-5,2240 nM
same,CC50,OVCAR-5,> 10 µM
same,GI 100%,OVCAR-5,5.71 µM
same,GI50,SK-MEL-2,1740 nM
same,CC50,SK-MEL-2,9.82 µM
same,GI 100%,SK-MEL-2,4.13 µM
same,GI50,NCI-H322M,3600 nM
same,CC50,NCI-H322M,> 10 µM
same,GI 100%,NCI-H322M,>10 µM
same,GI 100%,HS 578T,2.85 µM
same,GI50,HS 578T,403 nM
same,CC50,HS 578T,> 10 µM
C=C1CCC2C(C)(C)CCC[C@]2(C)C1CC/C(C)=C\CC/C(C)=N/NC(N)=S (some centres unmarked) [Compound 36],GI50,EKVX,1240 nM
same,CC50,EKVX,5.09 µM
same,GI 100%,EKVX,2.51 µM
same,GI 100%,HCT-116,1.11 µM
same,GI50,HCT-116,252 nM
same,CC50,HCT-116,3.32 µM
same,GI 100%,HCC-2998,0.733 µM
same,GI50,HCC-2998,240 nM
same,CC50,HCC-2998,2680 nM
same,GI50,SNB-19,1050 nM
same,CC50,SNB-19,5 µM
same,GI 100%,SNB-19,2.29 µM
same,GI50,SN12C,351 nM
same,CC50,SN12C,3.67 µM
same,GI 100%,SN12C,1.35 µM
same,GI50,OVCAR-8,1160 nM
same,CC50,OVCAR-8,7.48 µM
same,GI 100%,OVCAR-8,2.94 µM
same,GI50,SK-OV-3,1260 nM
same,CC50,SK-OV-3,5.2 µM
same,GI 100%,SK-OV-3,2.56 µM
same,GI50,SK-MEL-28,239 nM
same,CC50,SK-MEL-28,2.07 µM
same,GI 100%,SK-MEL-28,0.592 µM
same,GI50,NCI-H460,626 nM
same,CC50,NCI-H460,5.02 µM
same,GI 100%,NCI-H460,2.02 µM
same,sensitivity of HT1080-TfR1KD cells compared with parental HT1080,HT1080-TfR1KD cells,decreased sensitivity
same,degree of selectivity between BJ-TERT/LT/ST/RAS^V12 and BJ-TERT,[1],up to 16 fold
same,growth inhibitory activity and selectivity in the BJ cell system (in words),[1]; structural analogs and hits,slightly lower potency and selectivity than the original hit
same,GI50,NCI-H226,480 nM
same,CC50,NCI-H226,4.55 µM
same,GI 100%,NCI-H226,1.66 µM
same,GI50,OVCAR-5,492 nM
same,CC50,OVCAR-5,4.33 µM
same,GI 100%,OVCAR-5,1.62 µM
same,GI50,SK-MEL-2,297 nM
same,CC50,SK-MEL-2,4.93 µM
same,GI 100%,SK-MEL-2,1.01 µM
same,GI50,NCI-H322M,606 nM
same,CC50,NCI-H322M,4.93 µM
same,GI 100%,NCI-H322M,1.99 µM
same,GI 100%,HS 578T,2.27 µM
same,GI50,HS 578T,420 nM
same,CC50,HS 578T,> 10 µM
